# Like-named read-outs stand apart in the source and are kept apart here.
# Assays:
# [1] = system: C. albicans SC5314; experiment: MIC assay (CLSI M27-A3 microbroth); assay type: cell-based; details: Candida albicans
# Method: (§1) For the minimum inhibitory concentration (MIC) assay, strains for testing were grown on YPD agar for 24 hours, and subcultured to YPD broth medium. Whole strains were incubated for 18 hours at 35 °C by shaking incubator. Grown organisms were diluted with fresh RPMI 1640 medium to appropriate concentration, 5 × 10^4 CFU/ml. Cultures were inoculated to 96-well plates containing antifungal medium. All compounds were dissolved using Dimethyl Sulfoxide (DMSO) and diluted broth media. Fungal diluted solution and antifungal medium were mixed at 1:1 ratio so total 200 ul mixed medium was made. Whole experiment plates were incubated for 24 hours at 37 °C. […] The MICs were calculated in duplicate using the Clinical and Laboratory Standards Institute M27-A3 microbroth methodology. Hemolysis experiments and the 3-(4,5-dimethylthiazol-2-yl)-5-(3-carboxymethoxyphenyl)-2-(4-sulfophenyl)-2H-tetrazolium (MTS) cell proliferation colorimetric assay were performed following known procedures[12],[27],[29].
# [2] = system: C. albicans SL28; experiment: MIC assay (CLSI M27-A3 microbroth); assay type: cell-based; details: Candida albicans
# Method: as §1
# [3] = system: C. albicans SL38; experiment: MIC assay (CLSI M27-A3 microbroth); assay type: cell-based; details: Candida albicans
# Method: as §1
# [4] = system: Candida albicans KCTC7965; experiment: MIC assay (CLSI M27-A3 microbroth); assay type: cell-based
# Method: as §1
# [5] = system: horse blood cells; assay type: cell-based
# Method: as §1
# [6] = Microsomal (metabolic) stability; assay type: in vitro ADME; details: human liver microsomes 1.0 mg/ml; for half-life at 1 µM / microsomal CLint at 1 µM / remaining at 80 min, 1 µM: pH 7.4; for remaining at 80 min, 1 µM: 80-min incubation
# Method: A metabolic stability experiment was conducted to calculate the rate of disappearance of polyene macrolides following in vitro incubation with human microsomes. Working solutions of polyene macrolides were prepared from a 10 mM stock solution in dimethyl sulfoxide (DMSO) diluted to a final concentration of 1 µM in 0.1 M potassium phosphate buffer (pH 7.4). Each incubation mixture included 1 mg/mL human microsomal protein (BD Gentest^TM, Franklin Lakes, NJ, USA) and 1 mM NADPH. The reactions were terminated at 0, 15, 45, and 80 min. The reaction mixtures were vigorously vortexed and then analyzed using the API2000 LC-MS/MS) system (Applied Biosystems, USA) using an Xterra MS C18 (3.5-µm, 2.1 × 50 mm, Waters).
# [7] = in vivo; details: mouse, 1 mg/kg
# Text: Supplement 41598_2018_31801_MOESM1_ESM.docx, table 4: Table S4.
# [8] = Single intravenous dose acute toxicity; assay type: in vivo, mice; details: both sexes, ICR, mouse, in vivo; mice, single intravenous administration; read-out: LD50, median lethal dose (dose causing 50% mortality)
# Method: All in vivo mouse toxicity studies were conducted according to Testing Guidelines for Safety Evaluation of Drugs[32] and the Organisation for Economic Co-operation and Development (OECD) Guideline[33]. Male and female ICR mice were used 7 weeks old for the toxicity test. […] The single doses were 1, 2.5, and 5 mg per kg body weight.
# [9] = 7-day repeated intravenous dose toxicity; assay type: in vivo, mice; details: both sexes, ICR, mouse, in vivo; mice, 7-day repeated intravenous doses; read-out: MTD, maximal tolerated dose
# Method: All in vivo mouse toxicity studies were conducted according to Testing Guidelines for Safety Evaluation of Drugs[32] and the Organisation for Economic Co-operation and Development (OECD) Guideline[33]. Male and female ICR mice were used 7 weeks old for the toxicity test. […]
# [10] = rats, oral administration
# [11] = parameters: method as in PMID 22382166; details: cited from earlier work
# [12] = parameters: method as in PMID 22382166; details: cited from earlier work; remark: listed apart in the source
# [13] = in vivo; details: male, SD, rat, iv, 1 mg/kg
# [14] = cited from earlier work
# [15] = system: C. albicans SC5314; experiment: In vivo efficacy, candidiasis-infected mouse model (survival); parameters: species or system Candida albicans; details: ICR mice infected with C. albicans SC5314; low dose 0.1 mg/kg
# Text: The systemic infection animal model was established using 4-week-old male ICR mice. Five C. albicans strains, consisting of two standard (C. albicans SC5314 and KCTC7965) and three clinical (C. albicans SL23, SL28, and SL38) strains were intravenously injected into the lateral tail vein of the various mouse groups. The mice were daily monitored for signs and mortality, and then they were euthanized. Subsequently, the target pathogenic C. albicans strain and optimal concentration for systemic infection for C. albicans were determined. A clinical isolate of C. albicans (SC5314) was grown and subcultured at 35 °C on Sabouraud dextrose agar (SDA) before infection. Candidiasis was induced by injecting 5 × 10^5 CFU/mouse via the tail vein of six 4-week-old ICR male mice. Each animal in the treatment group was administered a subcutaneous injection of reconstituted polyene macrolides 4 h after the infection. The drug efficacy was investigated by determining the survival rates of the mice.
smiles,measurement,setting,value
"CC(=O)NC1C(OC2C(C)OC(OC3C=CC=CC=CC=CCCC=CC=CC(C)C(O)C(C)C(C)OC(=O)CC(O)CC(O)CC(O)CCC(O)C(O)CC4(O)CC(O)C(C(=O)O)C(C3)O4)C(O)C2N)OC(CO)C(O)C1O (stereo not drawn) [NPP A1, nystatin-like Pseudonocardia polyene (NPP) A1]",MIC,"[1]; SC5314, read-out: Antifungal activity (MIC)",16 µg/mL
same,MIC,"[2]; SL28, read-out: Antifungal activity (MIC)",16 µg/mL
same,MIC,"[3]; SL38, read-out: Antifungal activity (MIC)",16 µg/mL
same,MIC,"[4]; Candida albicans, KCTC7965, read-out: Antifungal activity (MIC)",16 µg/mL
same,"Hemolytic activity (MHC, minimum hemolytic concentration)","[5]; 90% hemolysis against horse blood cells, ± percentage standard deviation",459.35 ± 32.5 µg/mL
same,Clearance class,[6],Low
same,half-life at 1 µM,[6],> 80 min
same,microsomal CLint at 1 µM,[6],< 8600 µL/min/mg
same,"remaining at 80 min, 1 µM",[6],60.9%
same,AUC(0-inf),[7]; read-out: AUC0-inf,12700 ng·h/mL
same,AUC(0-t),[7]; read-out: AUC0-t,12400 ng·h/mL
same,clearance,[7]; read-out: CL (converted),1.67 mL/min/kg
same,MRT inf,[7]; read-out: MRTinf,66 min
same,Vd,[7]; read-out: Vss,0.1 L/kg
same,half-life,[7]; read-out: t1/2 (converted),60 min
same,LD50 at 7 days,[8],16.1 mg/kg
same,MTD at 7 days,[9],5 to 10 mg/kg
same,detection in the plasma following oral administration,[10],not detected
same,"water-solubility, fold higher than nystatin A1",[11],300 fold
same,"antifungal activity, lower than nystatin A1",[12],approximately 50%
same,AUC(0-inf),[13]; plasma,4470 ng·h/mL
same,AUC(0-t),[13]; plasma,4390 ng·h/mL
same,MRT inf,[13]; plasma,42 min
same,Vd,[13]; plasma,0.1 L/kg
same,clearance,[13]; plasma,3.33 mL/min/kg
same,half-life,[13]; plasma,36 min
same,"hemolytic activity, fold reduced versus nystatin A1",[14],10 fold
"C[C@@H]1[C@H](O)[C@@H](C)/C=C/C=C/CC/C=C/C=C/C=C/C=C/[C@H](O[C@@H]2O[C@H](C)[C@@H](O)[C@H](N)[C@@H]2O)C[C@@H]2O[C@](O)(C[C@@H](O)[C@H](O)CC[C@@H](O)C[C@@H](O)C[C@@H](O)CC(=O)O[C@H]1C)C[C@H](O)[C@H]2C(=O)O [Nystatin A1, nystatin A1]",MIC,"[1]; C. albicans SC5314, no visible growth, read-out: Antifungal activity (MIC)",4 µg/mL
same,MIC,"[2]; C. albicans SL28, no visible growth, read-out: Antifungal activity (MIC)",4 µg/mL
same,MIC,"[3]; C. albicans SL38, no visible growth, read-out: Antifungal activity (MIC)",4 µg/mL
same,MIC,"[4]; Candida albicans KCTC7965, no visible growth, read-out: Antifungal activity (MIC)",4 µg/mL
same,"Hemolytic activity (MHC, minimum hemolytic concentration)",[5]; horse,66.17 ± 0.90 µg/mL
same,Clearance class,[6],Low
same,half-life at 1 µM,[6],> 80 min
same,microsomal CLint at 1 µM,[6],< 8600 µL/min/mg
same,"remaining at 80 min, 1 µM",[6],115%
same,AUC(0-inf),[7],7150 ng·h/mL
same,AUC(0-t),[7],7120 ng·h/mL
same,MRT inf,[7],54 min
same,Vd,[7],0.1 L/kg
same,clearance,[7],1.67 mL/min/kg
same,half-life,[7],36 min
same,LD50 at 7 days,[8],5.37 mg/kg
same,MTD at 7 days,[9],2 to 4 mg/kg
same,survival rate,[15],gradually decreased
same,MRT inf,[13]; in vivo,48 min
same,AUC(0-inf),[13]; plasma,5300 ng·h/mL
same,AUC(0-t),[13]; plasma,5120 ng·h/mL
same,Vd,[13]; plasma,0.2 L/kg
same,clearance,[13]; plasma,3.33 mL/min/kg
same,half-life,[13]; plasma,36 min
